# Read-outs that look alike come from different tables or passages of the source.
# How the values were obtained:
# Assay type in all cases: cell-based
# K-562 = test: SRB colorimetric cell growth inhibition assay, K-562; settings: for GI50: GI=growth inhibition, read-out: GI50 K-562; for CC50: cell killing (cytotoxic effect), read-out: LC50 K-562; for IC (TGI): total growth inhibition (cytostatic effect), read-out: TGI K-562
# Method in brief: (§1)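 Tested samples remained on human cancer cell cultures throughout the incubation; viable biomass was then stained with SRB and read colorimetrically.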
# A-549 = test: SRB colorimetric cell growth inhibition assay, A-549; settings: for GI50: GI=growth inhibition, read-out: GI50 A-549; for CC50: cell killing (cytotoxic effect), read-out: LC50 A-549; for IC (TGI): total growth inhibition (cytostatic effect), read-out: TGI A-549
# Method in brief: as §1
# SK-MEL-28 = test: SRB colorimetric cell growth inhibition assay, SK-MEL-28; settings: for GI50: GI=growth inhibition, read-out: GI50 MEL-28; for CC50: cell killing (cytotoxic effect), read-out: LC50 MEL-28
# Method in brief: as §1
# HT-29 = test: SRB colorimetric cell growth inhibition assay, HT-29; settings: for GI50: GI=growth inhibition, read-out: GI50 HT-29; for CC50: cell killing (cytotoxic effect), read-out: LC50 HT-29; for IC (TGI): total growth inhibition (cytostatic effect), read-out: TGI HT-29
# Method in brief: as §1
# LoVo = test: SRB colorimetric cell growth inhibition assay, LoVo; settings: for GI50: GI=growth inhibition, read-out: GI50 LOVO; for CC50: cell killing (cytotoxic effect), read-out: LC50 LOVO; for IC (TGI): total growth inhibition (cytostatic effect), read-out: TGI LOVO
# Method in brief: as §1
# LoVo-Dox = test: SRB colorimetric cell growth inhibition assay, LoVo-Dox (MDR); settings: LOVO-DOX; for GI50: GI=growth inhibition, read-out: GI50 LOVO-DOX; for CC50: cell killing (cytotoxic effect), read-out: LC50 LOVO-DOX; for IC (TGI): total growth inhibition (cytostatic effect), read-out: TGI LOVO-DOX
# Method in brief: as §1
# DU-145 = test: SRB colorimetric cell growth inhibition assay, DU-145; settings: for GI50: GI=growth inhibition, read-out: GI50 DU-145; for CC50: cell killing (cytotoxic effect), read-out: LC50 DU-145
# Method in brief: as §1
# LNCaP = test: SRB colorimetric cell growth inhibition assay, LNCaP; settings: LN-caP; for GI50: GI=growth inhibition, read-out: GI50 LN-caP; for CC50: cell killing (cytotoxic effect), read-out: LC50 LN-caP
# Method in brief: as §1
# SK-BR-3 = test: SRB colorimetric cell growth inhibition assay, SK-BR-3; settings: for GI50: GI=growth inhibition, read-out: GI50 SK-BR-3; for CC50: cell killing (cytotoxic effect), read-out: LC50 SK-BR-3
# Method in brief: as §1
# IGROV = test: SRB colorimetric cell growth inhibition assay, IGROV; settings: IGROV; for GI50: GI=growth inhibition, read-out: GI50 IGROV; for CC50: cell killing (cytotoxic effect), read-out: LC50 IGROV
# Method in brief: as §1
# IGROV-ET = test: SRB colorimetric cell growth inhibition assay, IGROV-ET (ET-743 resistant); settings: IGROV-ET; for GI50: GI=growth inhibition, read-out: GI50 IGROV-ET; for CC50: cell killing (cytotoxic effect), read-out: LC50 IGROV-ET
# Method in brief: as §1
# HeLa = test: SRB colorimetric cell growth inhibition assay, HeLa; settings: Homo sapiens, HeLa; for GI50: GI=growth inhibition, read-out: GI50 HELA; for CC50: cell killing (cytotoxic effect), read-out: LC50 HELA; for IC (TGI): total growth inhibition (cytostatic effect), read-out: TGI HELA
# Method in brief: as §1
# HeLa-APL = test: SRB colorimetric cell growth inhibition assay, HeLa-APL (aplidine resistant); settings: Homo sapiens, HELA-APL; for GI50: GI=growth inhibition, read-out: GI50 HELA-APL; for CC50: cell killing (cytotoxic effect), read-out: LC50 HELA-APL; for IC (TGI): total growth inhibition (cytostatic effect), read-out: TGI HELA-APL
# Method in brief: as §1
# PANC-1 = test: SRB colorimetric cell growth inhibition assay, PANC-1; settings: for GI50: GI=growth inhibition, read-out: GI50 PANC-1; for CC50: cell killing (cytotoxic effect), read-out: LC50 PANC-1; for IC (TGI): total growth inhibition (cytostatic effect), read-out: TGI PANC-1
# Method in brief: as §1
# [1] = Homo sapiens, SK-MEL-28, MEL-28
# [2] = total growth inhibition (cytostatic effect)
smiles,measurement,setting,value
COc1cc(-c2c3c4cc(OC)c(OC(=O)[C@H](C)N)cc4oc(=O)c3n3ccc4cc(OC(=O)[C@H](C)N)c(OC)cc4c23)ccc1OC(=O)[C@H](C)N [Compound 199],GI50,"K-562; Homo sapiens, K562, K-562",11.2 nM
same,CC50,"K-562; Homo sapiens, K562, K-562",281 nM
same,IC (TGI),"K-562; Homo sapiens, K562, K-562",55.5 nM
same,GI50,"A-549; Homo sapiens, A549, A-549",60.6 nM
same,CC50,"A-549; Homo sapiens, A549, A-549",12200 nM
same,IC (TGI),"A-549; Homo sapiens, A549, A-549",1330 nM
same,GI50,SK-MEL-28; [1],32.6 nM
same,CC50,SK-MEL-28; [1],7040 nM
same,IC (TGI),"SK-MEL-28; Homo sapiens, SK-MEL-28, MEL-28, total growth inhibition (cytostatic effect), read-out: TGI MEL-28",151 nM
same,GI50,"HT-29; Homo sapiens, HT-29, HT-29",2140 nM
same,CC50,"HT-29; Homo sapiens, HT-29, HT-29",12200 nM
same,IC (TGI),"HT-29; Homo sapiens, HT-29, HT-29",6710 nM
same,GI50,"LoVo; Homo sapiens, LoVo",128 nM
same,CC50,"LoVo; Homo sapiens, LoVo",879 nM
same,IC (TGI),"LoVo; Homo sapiens, LoVo",335 nM
same,GI50,LoVo-Dox; Homo sapiens,73.7 nM
same,CC50,LoVo-Dox; Homo sapiens,12200 nM
same,IC (TGI),LoVo-Dox; Homo sapiens,499 nM
same,GI50,"DU-145; Homo sapiens, DU-145, DU-145",3.73 nM
same,CC50,"DU-145; Homo sapiens, DU-145, DU-145",37.2 nM
same,IC (TGI),"DU-145; Homo sapiens, DU-145, DU-145, total growth inhibition (cytostatic effect), read-out: TGI DU-145",9.93 nM
same,GI50,"LNCaP; Homo sapiens, LNCaP",15.8 nM
same,CC50,"LNCaP; Homo sapiens, LNCaP",392 nM
same,IC (TGI),"LNCaP; Homo sapiens, LNCaP, total growth inhibition (cytostatic effect), read-out: TGI LN-caP",89.2 nM
same,GI50,"SK-BR-3; Homo sapiens, SK-BR-3, SK-BR-3",46.6 nM
same,CC50,"SK-BR-3; Homo sapiens, SK-BR-3, SK-BR-3",8280 nM
same,IC (TGI),"SK-BR-3; Homo sapiens, SK-BR-3, SK-BR-3, total growth inhibition (cytostatic effect), read-out: TGI SK-BR-3",97.4 nM
same,GI50,IGROV; Homo sapiens,18.9 nM
same,CC50,IGROV; Homo sapiens,873 nM
same,IC (TGI),"IGROV; Homo sapiens, total growth inhibition (cytostatic effect), read-out: TGI IGROV",96.2 nM
same,GI50,IGROV-ET; Homo sapiens,31.3 nM
same,CC50,IGROV-ET; Homo sapiens,12200 nM
same,IC (TGI),"IGROV-ET; Homo sapiens, total growth inhibition (cytostatic effect), read-out: TGI IGROV-ET",159 nM
same,GI50,HeLa,29.9 nM
same,CC50,HeLa,651 nM
same,IC (TGI),HeLa,199 nM
same,GI50,HeLa-APL,71.8 nM
same,CC50,HeLa-APL,574 nM
same,IC (TGI),HeLa-APL,242 nM
same,GI50,"PANC-1; Homo sapiens, PANC-1, PANC-1",36.9 nM
same,CC50,"PANC-1; Homo sapiens, PANC-1, PANC-1",8080 nM
same,IC (TGI),"PANC-1; Homo sapiens, PANC-1, PANC-1",276 nM
COc1cc(-c2c3c4cc(OC)c(OC(=O)[C@@H](N)Cc5ccccc5)cc4oc(=O)c3n3ccc4c(OC(=O)[C@@H](N)Cc5ccccc5)c(OC)c(OC)cc4c23)ccc1OC(=O)[C@@H](N)Cc1ccccc1 [Compound 207],CC50,"K-562; Homo sapiens, K562, K-562",9260 nM
same,IC (TGI),"K-562; Homo sapiens, K562, K-562",3060 nM
same,GI50,K-562; K-562,92 nM
same,GI50,A-549; A-549,91.4 nM
same,CC50,"A-549; Homo sapiens, A549, A-549",3550 nM
same,IC (TGI),"A-549; Homo sapiens, A549, A-549",1020 nM
same,GI50,SK-MEL-28; MEL-28,44.4 nM
same,CC50,SK-MEL-28; MEL-28,4600 nM
same,TGI MEL-28,"SK-MEL-28; MEL-28, total growth inhibition (cytostatic effect)",2.45E−07 Molar
same,GI50,HT-29; HT-29,3770 nM
same,CC50,"HT-29; Homo sapiens, HT-29, HT-29",9260 nM
same,IC (TGI),"HT-29; Homo sapiens, HT-29, HT-29",9260 nM
same,CC50,"LoVo; Homo sapiens, LoVo",868 nM
same,IC (TGI),"LoVo; Homo sapiens, LoVo",405 nM
same,GI50,LoVo; LOVO,189 nM
same,CC50,LoVo-Dox; Homo sapiens,9260 nM
same,IC (TGI),LoVo-Dox; Homo sapiens,2850 nM
same,GI50,LoVo-Dox,316 nM
same,GI50,DU-145; DU-145,23 nM
same,CC50,DU-145; DU-145,74.8 nM
same,TGI DU-145,"DU-145; DU-145, total growth inhibition (cytostatic effect)",4.16E−08 Molar
same,GI50,LNCaP,127 nM
same,CC50,LNCaP,4100 nM
same,TGI LN-caP,LNCaP; [2],9.44E−07 Molar
same,GI50,SK-BR-3; SK-BR-3,202 nM
same,CC50,SK-BR-3; SK-BR-3,4210 nM
same,TGI SK-BR-3,"SK-BR-3; SK-BR-3, total growth inhibition (cytostatic effect)",1.07E−06 Molar
same,GI50,IGROV,76.3 nM
same,CC50,IGROV,1550 nM
same,TGI IGROV,IGROV; [2],3.18E−07 Molar
same,GI50,IGROV-ET,43.6 nM
same,CC50,IGROV-ET,2380 nM
same,TGI IGROV-ET,IGROV-ET; [2],2.86E−07 Molar
same,GI50,HeLa,42.2 nM
same,CC50,HeLa,3340 nM
same,IC (TGI),HeLa,1230 nM
same,GI50,HeLa-APL,77.9 nM
same,CC50,HeLa-APL,3710 nM
same,IC (TGI),HeLa-APL,1500 nM
same,CC50,"PANC-1; Homo sapiens, PANC-1, PANC-1",9260 nM
same,IC (TGI),"PANC-1; Homo sapiens, PANC-1, PANC-1",2370 nM
same,GI50,PANC-1; PANC-1,127 nM

# From patent publication US7396837B2, “Antitumoral analogs of lamellarins” (Pharma Mar, S.A.U., priority 2002, dated 2008)
